Laboratory results published in article PMC5111122, “Peptides at the Interface: Self-Assembly of Amphiphilic Designer Peptides and Their Membrane Interaction Propensity” (Biomacromolecules, 2016).

Key:
[1] = Determination of the critical aggregation concentration (CAC), DPH fluorescence assay; format: physicochemical; details: excitation 359 nm, emission 428 nm, peptide in double-distilled water cleared with NaOH, aged 1 week, intersection of two fitted straight lines
Procedure: (§1) Lyophilized peptides were dissolved in double-distilled water. NaOH (1 or 0.1 M) was added stepwise until the samples appeared as clear, colorless solutions. Stock solutions (50 mM) were then diluted with double-distilled water to obtain the desired concentrations. All samples were aged for 1 week under an argon atmosphere prior to fluorescence, SAXS, TEM, and attenuated total reflection Fourier transform infrared (ATR-FTIR) spectroscopy measurements.
A 4 μL portion of DPH in methanol (10 μM) was added to 50 μL of peptide solution of varying concentrations. All fluorescence spectra were recorded under identical conditions on a CLARIOstar microplate reader (BMG LABTECH, Ortenberg, Germany) with an excitation wavelength of 359 nm. Fluorescence emission was recorded at 428 nm. Samples were background corrected and normalized to the highest intensity readout. DPH is almost nonfluorescent in aqueous solutions and in the presence of randomly oriented peptide monomers. As soon as oriented structures are formed, a sharp increase in fluorescence intensity is observed. The CAC of the peptide is defined as the intersection point of two straight lines, fitting the low intensity region and the region with linearly increasing intensity.[18]

[2] = TEM of peptide assemblies (negative staining, cryo); format: physicochemical
Procedure: as §1
Solutions of A6YD and V4WD2 (11 mM) were incubated for 1 week prior to TEM measurements. Samples were adsorbed onto a glow-discharged carbon-coated copper grid and allowed to settle for 1 min. Excess fluid was carefully removed with filter paper and immediately replaced by 5 μL of a 2% (w/v) uranyl acetate staining solution, which was centrifuged for 6 min at 10000 rpm prior to usage in order to precipitate potentially present aggregates. The uranyl acetate solution was allowed to settle for 30 s, blotted, and replaced by another 5 μL of fresh solution. After 30 s of incubation, the staining solution was removed and the sample was air-dried. Visualization of the samples was achieved by using a Fei Tecnai G^2 20 transmission electron microscope (Eindhoven, The Netherlands) operating at an acceleration voltage of 120 kV. Digital images were made using a Gatan US1000 CCD camera at 2K × 2K resolution.

[3] = Differential scanning calorimetry (DSC) on DPPC MLVs; details: as evidenced by DSC, EPR, and SAXS
Procedure: DPPC was dissolved in chloroform/methanol (2:1 v/v), mixed, and organic solvents were evaporated under a gentle stream of nitrogen, followed by drying under a vacuum overnight in order to completely remove residual organic solvents. The dry lipid-film was hydrated either by adding double-distilled water (reference) or by adding aqueous solutions of the peptides to finally obtain four different molar ratios: 50:1, 25:1, 10:1, and 5:1 DPPC/peptide (mol/mol). These ratios correspond to peptide concentrations of 1.1, 2.2, 5.5, and 11 mM, respectively. The DPPC concentration was 55 mM. The samples were incubated above the lipid’s phase transition temperature at 50 °C for 2 h, intermitted by vigorous vortexing every 15 min.
DPPC MLVs in the presence and absence of peptides were prepared as described above, incubated for 24 h at room temperature (gently rotating), and diluted with double-distilled water to 2.75 mM DPPC prior to measurements to fit the optimal concentration regime for DSC. Measurements were performed on a Microcal VP-DSC differential scanning calorimeter (Northampton, MA, USA). Scans were recorded at a constant scan rate of 0.5 °C/min from 10 to 80 °C. […] The sharpness of the transition was described by the full width at half-maximum (ΔT1/2), and calorimetric enthalpies (ΔH) were calculated by integrating the peak areas.

[4] = not given; remark: listed apart in the source

Row | Substance | ∼CAC (critical aggregation concentration) [1] | diameter of supramolecular cylinders (TEM, both techniques) ([2]; above the CAC, Fig. S11) | fiber diameter, cryo-TEM ([2]; cryogenic conditions) | nanofiber diameter, negative-staining TEM ([2]; negative staining with 2% uranyl acetate, peptide aged 1 week) | interaction with DPPC MLVs [3] | hard sphere radius (Rs) | peptide fiber diameter in presence of LDL [4]
1 | Ac-AAAAAAYK-NH2 [A6YK] | ~1 mM | 4- 12 nm | 8–12 nm | 4–10 nm | no interaction |  | 
2 | Ac-AAAAAAYD-OH |  |  |  |  |  | 2.6 nm | 10 nm
